Measurements: patent publication US8247424B2, “Fredericamycin derivatives” (Zentopharm GmbH, priority 2002, dated 2012)
≈ marks a conversion by molar mass, not a printed value.

Test system: not listed separately
Experiment: Water solubility of the fredericamycin derivatives
Type: physicochemical
Conditions: statement in the synthesis text, medium not given

Compound | water solubility compared to fredericamycin (1)
COC1=CC(=O)c2c(O)c3c(c(O)c2C1=O)C(=O)C1(CCc2cc4cc(C(O)C(O)C(O)C(C)O)[nH]c(=O)c4c(O)c21)C3=O [Example 2, Tri-potassium-1-desoxy-5-C-[(8R)-4′,9,9′-trihydroxy-6′-methoxy-1,1′,3′,5′,8′-pentaoxo-1,1′,2,3′,5′,6,7,8′-octahydrospiro[cyclopenta[g]isoquinoline-8,2′-cyclopenta[b]-naphthalene]-3-yl]pentitol] | significantly higher water solubility

Test system: 12 cancer cell lines: LCL (H460, lung), MACL (MCF7, breast), LXFL (52L, lung), LXFA (629L, lung), MEXF (462NL, melanoma), MEXF (514L, melanoma), MAXF (401NL …)
Experiment: Biological activity against 12 cancer cell lines, efficacy (IC70) averaged over all cell lines;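 further: panel also covers renal lines RXF 944L and RXF 486L, uterine UXF 1138L, and prostate lines PRXF PC3M and PRXF 22RV1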
Type: cell-based
Conditions: averaged over all 12 cancer cell lines, 5 test concentrations
Description: LCL (H460, lung), MACL (MCF7, breast), LXFL (52L, lung), LXFA (629L, lung), MEXF (462NL, melanoma), MEXF (514L, melanoma), MAXF (401NL, breast), RXF (944L, renal), RXF (486L, renal), UXF (1138L, uterus), PRXF (PC3M, prostate), PRXF (22RV1).

Compound | IC70 [µg/mL]
COC1=CC(=O)c2c(O)c3c(c(O)c2C1=O)C(=O)[C@@]1(CCc2cc4cc(C(O)C(O)C(O)C(C)O)[nH]c(=O)c4c(O)c21)C3=O (stereo partly drawn) [Example 1, 1-Desoxy-5-C-[(8R)-4′,9,9′-trihydroxy-6′-methoxy-1,1′,3′,5′,8′-pentaoxo-1,1′,2,3′,5′,6,7,8′-octahydrospiro[cyclopenta[g]isoquinoline-8,2′-cyclopenta[b]-naphalene]-3-yl]pentitol] | 0.1130 (≈ 0.186 µM)
C/C=C/C=C/c1cc2cc3c(c(O)c2c(=O)[nH]1)[C@@]1(CC3)C(=O)c2c(O)c3c(c(O)c2C1=O)C(=O)C(NC)=CC3=O [Example 265] | 0.1330 (≈ 0.247 µM)
N.N.[Cl][Pt][Cl] [cisplatin] | 37.1020
(8S)-5-bromo-4′,9,9′-trihydroxy-6′-methoxy-1,1′,3′,5′,8′-pentaoxo-1,1′,2,3′,5′,6,7,8′-octahydrospiro[cyclopenta[g]isoquinoline-8,2′-cyclopenta[b]-naphthalene]-1,1′,3′,5′,8′(2H)-pentone [Example 13] | 0.0050
(8S)-5-chloro-4′,6′,9′-trimethoxy-2-methoxy-3-[(1E,3E)-penta-1,3-dienyl]-6,7-dihydrospiro[cyclopenta[g]isoquinoline-8,2′-cyclopenta[b]-naphthalene]-1,1′,3′,5′,8′(2H)-pentone [Example 22] | 0.0080

Test system: not listed separately
Experiment: Water solubility of the fredericamycin derivatives
Type: physicochemical
Conditions: 0.9% NaCl solution, pH 7
Description: The water solubility of the various fredericamycin derivatives can be determined in a 0.9% NaCl solution with a pH of 7.

Compound | water solubility
COC1=CC(=O)c2c(O)c3c(c(O)c2C1=O)C(=O)C1(CCc2cc4cc(C(O)C(O)C(O)C(C)O)[nH]c(=O)c4c(O)c21)C3=O [Example 2, Tri-potassium-1-desoxy-5-C-[(8R)-4′,9,9′-trihydroxy-6′-methoxy-1,1′,3′,5′,8′-pentaoxo-1,1′,2,3′,5′,6,7,8′-octahydrospiro[cyclopenta[g]isoquinoline-8,2′-cyclopenta[b]-naphthalene]-3-yl]pentitol] | soluble
COC1=CC(=O)c2c(O)c3c(c(O)c2C1=O)C(=O)[C@]1(CCc2cc4cc(C=O)[nH]c(=O)c4c(O)c21)C3=O [Example 3, (8S)-4′,9,9′-trihydroxy-6′-methoxy-1,1′,3′,5′,8′-pentaoxo-1,1′,2,3′,5′,6,7,8′-octahydrospiro[cyclopenta[g]isoquinoline-8,2′-cyclopenta[b]-naphthalene]-3-carbaldehyde] | dissolve very well
COC1=CC(=O)c2c(O)c3c(c(O)c2C1=O)C(=O)[C@]1(CCc2cc4cc(/C=N/NC(=O)C[n+]5ccccc5)[nH]c(=O)c4c(O)c21)C3=O.[Cl-] [Example 5, 1-[2-Oxo-2-((2E)-2-{[(8S)-4′,9,9′-trihydroxy-6′-methoxy-1,1′,3′,5′,8′-pentaoxo-1,1′,2,3′,5′,6,7,8′-octahydrospiro[cyclopenta[g]isoquinoline-8,2′-cyclopenta[b]-naphthalene]-3-yl]methylene}hydrazino)-ethyl]pyridinium chloride] | sufficiently and markedly better soluble than fredericamycin
CON=Cc1cc2cc3c(c(O)c2c(=O)[nH]1)[C@@]1(CC3)C(=O)c2c(O)c3c(c(O)c2C1=O)C(=O)C(OC)=CC3=O [Example 7, (8S)-4′,9,9′-trihydroxy-6′-methoxy-1,1′,3′,5′,8′-pentaoxo-1,1′,2,3′,5′,6,7,8′-octahydrospiro[cyclopenta[g]isoquinoline-8,2′-cyclopenta[b]-naphthalene]-3-carbaldehyde-O-methyloxime] | sufficiently and markedly better soluble than fredericamycin
COC1=CC(=O)c2c(O)c3c(c(O)c2C1=O)C(=O)[C@]1(CCc2cc4cc(C(=O)O)[nH]c(=O)c4c(O)c21)C3=O [Example 11, (8S)-4′,9,9′-trihydroxy-6′-methoxy-1,1′,3′,5′,8′-pentaoxo-1,1′,2,3′,5′,6,7,8′-octahydrospiro[cyclopenta[g]isoquinoline-8,2′-cyclopenta[b]-naphthalene]-3-carboxylic acid] | sufficiently and markedly better soluble than fredericamycin
COC1=CC(=O)c2c(O)c3c(c(O)c2C1=O)C(=O)[C@]1(CCc2cc4cc(C(=O)[O-])[nH]c(=O)c4c(O)c21)C3=O.[K+] [Example 12, Potassium(8S)-4′,9,9′-trihydroxy-6′-methoxy-1,1′,3′,5′,8′-pentaoxo-1,1′,2,3′,5′,6,7,8′-octahydrospiro[cyclopenta[g]isoquinoline-8,2′-cyclopenta[b]-naphthalene]-3-carboxylate] | sufficiently and markedly better soluble than fredericamycin
(8S)-4′,9,9′-trihydroxy-6′-methoxy-1,1′,3′,5′,8′-pentaoxo-1,1′,2,3′,5′,6,7,8′-octahydrospiro[cyclopenta[g]isoquinoline-8,2′-cyclopenta[b]-naphthalene]-1,1′,3′,5′,8′(2H)-pentone [Example 10] | soluble
(8S)-4′,9,9′-trihydroxy-6′-methoxy-1,1′,3′,5′,8′-pentaoxo-1,1′,2,3′,5′,6,7,8′-octahydrospiro[cyclopenta[g]isoquinoline-8,2′-cyclopenta[b]-naphthalene]-3-carbaldehyde oxime [Example 6] | dissolves well
(8S)-5-bromo-4′,9,9′-trihydroxy-6′-methoxy-1,1′,3′,5′,8′-pentaoxo-1,1′,2,3′,5′,6,7,8′-octahydrospiro[cyclopenta[g]isoquinoline-8,2′-cyclopenta[b]-naphthalene]-1,1′,3′,5′,8′(2H)-pentone [Example 13] | soluble
